Experimental data taken from article PMC4805777 (International Journal for Parasitology: Drugs and Drug …, 2016).

Test system: T. cruzi (Strain H1)
Assay: T. cruzi in vivo assay, second study
Parameters: species or system Trypanosoma cruzi
Details: BALB/c mice, 100 mg/kg/day orally, 21 days (method: 20 days)

O=C(Cn1ccnc1[N+](=O)[O-])NCc1ccccc1 [Benznidazole]
parasitemia, in words: undetectable
survival, in words (50-day study): all the mice survived
